Earlier results on 1 molecule are cited in patent publication US5596019A, “N-acyl-cycloalkylamine derivatives as melatonergics” (Bristol-Myers Squibb Company, priority 1995, dated 1997).

For one data set, the system named is circadian rhythms. The note with it: exogenous melatonin, rats.

`COc1ccc2[nH]cc(CCNC(C)=O)c2c1` [melatonin, N-acetyl-5-methoxytryptamine]: the oral bioavailability result was “often low and variable”. Besides, the “synchronization of circadian rhythms” value in the data set with circadian rhythms is recorded as “synchronize circadian rhythms in rats”.
